The target in assay [1] is T1, Mcl-1/Bim interaction, recombinant human Mcl-1 (171-327) (Homo sapiens, UniProt Q07820).
T1 construct: made in house
Nature of the assay: Cell free Mcl-1: Bim Affinity Assay (Mcl-1 HTRF). The class given is binding. In outline:
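TR-FRET competition assay with biotinylated human Bim peptide (residues 51-76); reaction plates incubated overnight before reading. IC50 values came from duplicate data fitted to a four-parameter sigmoidal competition curve.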

Assay [2] relates to OPM-2 human multiple myeloma cell line. In words: Cell Viability Assay (OPM-2 10 FBS). It is filed as cell-based. The note with it: OPM-2 cells, CellTiter-Glo. The method, boiled down: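 IC50 from 4-parameter logistic fit of CellTiter-Glo luminescence. 3000 cells/well, 10% FBS medium, serial compound dilutions, 16 h, 37 °C/5% CO2; read 25 min post-reagent.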
[3] abbreviates: TR-FRET, 0.1 nM Mcl-1 (171-327), 0.05 nM biotin-Bim (51-76).
Setting [4] is: Homo sapiens, OPM-2, 16 h, 16 h incubation.
Where [5] appears, read: cell free Mcl-1:Bim TR-FRET, recombinant human Mcl-1 (171-327).
The mark [6] stands for this setting: Homo sapiens, OPM-2, 16 h, 16 h.

This is an account of results in US12091425B2 (AMGEN INC., priority 2016, dated 2024).

T1 sequence (Q07820 171-327): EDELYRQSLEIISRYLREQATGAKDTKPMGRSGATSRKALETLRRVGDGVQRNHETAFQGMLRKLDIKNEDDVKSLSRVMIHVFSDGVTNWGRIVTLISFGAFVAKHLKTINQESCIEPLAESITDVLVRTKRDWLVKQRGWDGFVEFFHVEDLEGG

Regarding `CO[C@@H]1/C=C/[C@@H](C)[C@@H](C)CS(=O)(=O)NC(=O)c2ccc3c(c2)N(C[C@@H]2CC[C@H]21)C[C@@]1(CCCc2cc(Cl)ccc21)CO3` (single isomer, unassigned) [Example 1066], the IC50 (commonly the concentration at which inhibition is half-maximal) in assay [1] (setting [3]) is 17.8 nM; in assay [2] (setting [4]), 15200 nM.
For `CO[C@@H]1/C=C/[C@H](O)[C@@H]2CC[C@H]2CN2C[C@@]3(CCCc4cc(Cl)ccc43)COc3ccc(cc32)C(=O)NS(=O)(=O)CC1` [Example 536, (1S,3′R,6′R,7′S,8′E,10′S)-6-chloro-7′-hydroxy-10′-methoxy-3,4-dihydro-2H,15′H-spiro[naphthalene-1,22′-[20]oxa[13]thia[1,14]diazatetracyclo[14.7.2.0^3,6.0^19,24]pentacosa [8,16,18,24]tetraen]-15′-one 13′,13′-dioxide], the IC50 was 1.99 nM in assay [1] (setting [5]) and 21300 nM in assay [2] (setting [6]).
`O=C1NS(=O)(=O)[C@H]2CCCC[C@@H]2CCC[C@H](O)[C@@H]2CC[C@H]2CN2C[C@@]3(CCCc4cc(Cl)ccc43)COc3ccc1cc32` (single isomer, unassigned) [Example 334]: the IC50 in assay [1] (setting [3]) came to 6.92 nM; in assay [2] (16 h) it was 2660 nM.
Take `C[C@@H]1[C@@H](C)C/C=C/[C@H](OCCN2CC3(COC3)C2)[C@@H]2CC[C@H]2CN2C[C@@]3(CCCc4cc(Cl)ccc43)COc3ccc(cc32)C(=O)NS1(=O)=O` [Example 518, (1S,3′R,6′R,7′S,8′E,11′S,12′R)-6-chloro-11′,12′-dimethyl-7′-(2-(2-oxa-6-azaspiro[3.3]hept-6-yl)ethoxy)-3,4-dihydro-2H,15′H-spiro[naphthalene-1,22′-[20]oxa[13]thia[1,14]diazatetracyclo[14.7.2.0^3,6.0^19,24]pentacosa [8,16,18,24]tetraen]-15′-one 13′,13′-dioxide]: the results for the IC50 in assay [1] (setting [5]) and in assay [2] (setting [6]) were 0.49 nM and 257 nM, respectively.
Consider `CCC(OC1C=CCCC(C)S(=O)(=O)NC(=O)c2ccc3c(c2)N(CC2CCC21)CC1(CCCc2cc(Cl)ccc21)CO3)C(=O)N(C)C` (single isomer, unassigned) [Example 419], for which the IC50 was found to be 0.333 nM in assay [1] (setting [3]) and 310 nM in assay [2] (setting [6]).
As for `CC[C@@H]1CC[C@H](O)/C=C/[C@@H]2CC[C@H]2CN2C[C@@]3(CCCc4cc(Cl)ccc43)COc3ccc(cc32)C(=O)NS1(=O)=O` (single isomer, unassigned) [Example 197], the half-maximal inhibitory concentration (IC50) turned out to be 1.12 nM in assay [1] (setting [3]) and 2600 nM in assay [2] (16 h).
In the case of `N#CCC[C@@H]1CC/C=C/[C@H](O)[C@@H]2CC[C@H]2CN2C[C@@]3(CCCc4cc(Cl)ccc43)COc3ccc(cc32)C(=O)NS1(=O)=O` (single isomer, unassigned) [Example 613], the figures for the IC50 in assay [1] (setting [5]) and in assay [2] (setting [6]) were 0.329 nM and 1540 nM, respectively.
In the case of `O=C1NS(=O)(=O)N2CCC[C@H]2C/C=C/[C@H](O)[C@@H]2CC[C@H]2CN2C[C@@]3(CCCc4cc(Cl)ccc43)COc3ccc1cc32` (single isomer, unassigned) [Example 345], the IC50 in assay [1] (setting [3]) turned out to be 0.877 nM; in assay [2] (setting [6]) it was 488 nM.
As to “(1S,3′R,6′R,7′S,11′S,13′R)-6-chloro-13′-methyl-3,4-dihydro-2H,17′H-spiro[naphthalene-1,24′-[8,12,22]trioxa[15]thia[1,16]diazapentacyclo[16.7.2.1^7,11.0^36.0^21,26]octacosa[18,20,26]trien]-17′-one 15′,15′-dioxide [Example 920]”, the values for the IC50 in assay [1] (setting [5]) and in assay [2] (16 h) were 1.86 nM and 4350 nM, respectively.
In the case of `COCCOCCOCCOCCO[C@H]1/C=C/C[C@H](C)[C@@H](C)S(=O)(=O)NC(=O)c2ccc3c(c2)N(C[C@@H]2CC[C@H]21)C[C@@]1(CCCc2cc(Cl)ccc21)CO3` [Example 379, (1S,3′R,6′R,7′S,8′E,11′S,12′R)-6-chloro-11′,12′-dimethyl-7′-(3,6,9,12-tetraoxatridec-1-yloxy)-3,4-dihydro-2H,15′H-spiro[naphthalene-1,22′-[20]oxa[13]thia[1,14]diazatetracyclo[14.7.2.0^3,6.0^19,24]pentacosa[8,16,18,24]tetraen]-15′-one 13′,13′-dioxide], the IC50 in assay [1] (setting [3]) came out at 0.211 nM; in assay [2] (setting [6]), 128 nM.
With `O=C1NS(=O)(=O)C(Cc2ccc(Br)cc2)CCC=CC(O)C2CCC2CN2CC3(CCCc4cc(Cl)ccc43)COc3ccc1cc32` (single isomer, unassigned) [Example 633], the IC50 amounted to 23.1 nM in assay [1] (setting [5]) and 17800 nM in assay [2] (16 h).
For `COCC[C@@H]1C[C@H](C)/C=C/[C@H](O)[C@@H]2CC[C@H]2CN2C[C@@]3(CCCc4cc(Cl)ccc43)COc3ccc(cc32)C(=O)NS1(=O)=O` (single isomer, unassigned) [Example 478] the same measures were 0.197 nM and 468 nM.
With `CCOC(=O)CO[C@H]1/C=C/CC[C@@H](CC)S(=O)(=O)NC(=O)c2ccc3c(c2)N(C[C@@H]2CC[C@H]21)C[C@@]1(CCCc2cc(Cl)ccc21)CO3` [Example 1003, ethyl (((1S,3′R,6′R,7′S,8′E,12′R)-6-chloro-12′-ethyl-13′,13′-dioxido-15′-oxo-3,4-dihydro-2H-spiro[naphthalene-1,22′-[20]oxa[13]thia[1,14]diazatetracyclo[14.7.2.0^3,6.0^19,24]pentacosa [8,16,18,24]tetraen]-7′-yl)oxy)acetate], the IC50 in assay [1] (setting [3]) turned out to be 0.844 nM; in assay [2] (setting [4]), 273 nM.
As for `C[C@@H]1[C@@H](C)C/C=C/[C@H](OCCN2C[C@H]3C[C@@H]2CO3)[C@@H]2CC[C@H]2CN2C[C@@]3(CCCc4cc(Cl)ccc43)COc3ccc(cc32)C(=O)NS1(=O)=O` [Example 521, (1S,3′R,6′R,7′S,8′E,11′S,12′R)-6-chloro-11′,12′-dimethyl-7′-(2-((1R,4R)-2-oxa-5-azabicyclo[2.2.1]hept-5-yl)ethoxy)-3,4-dihydro-2H,15′H-spiro[naphthalene-1,22′-[20]oxa[13]thia[1,14]diazatetracyclo[14.7.2.0^3,6.0^19,24]pentacosa [8,16,18,24]tetraen]-15′-one 13′,13′-dioxide 2,2,2-trifluoroacetic Acid], the IC50 in assay [1] (setting [5]) is 0.291 nM; in assay [2] (setting [6]) it was 166 nM.
As to `CO[C@H]1/C=C/[C@H](O)[C@@H]2CC[C@H]2CN2C[C@@]3(CCCc4cc(Cl)ccc43)COc3ccc(cc32)C(=O)NS(=O)(=O)[C@H](C)C1` (single isomer, unassigned) [Example 487], the figures for the IC50 in assay [1] (setting [5]) and in assay [2] (16 h) were 1.05 nM and 5800 nM, respectively.
With `COCCO[C@H]1/C=C/C[C@H](C)[C@H](COC)S(=O)(=O)NC(=O)c2ccc3c(c2)N(C[C@@H]2CC[C@H]21)C[C@@]1(CCCc2cc(Cl)ccc21)CO3` (single isomer, unassigned) [Example 464], the IC50 in assay [1] (setting [3]) was found to be 1.49 nM; in assay [2] (16 h) it was 650 nM.
With `CC(C)OC(=O)C[C@@H]1[C@@H](C)C/C=C\[C@H](O)[C@@H]2CC[C@H]2CN2C[C@@]3(CCCc4cc(Cl)ccc43)COc3ccc(cc32)C(=O)NS1(=O)=O` [Example 570], the figures for the IC50 in assay [1] (setting [5]) and in assay [2] (16 h) were 8.44 nM and 3020 nM, respectively.
In the same order, the values of `CO[C@H]1/C=C/C[C@H](C)[C@@H](CC(F)(F)F)S(=O)(=O)NC(=O)c2ccc3c(c2)N(C[C@@H]2CC[C@H]21)C[C@@]1(CCCc2cc(Cl)ccc21)CO3` (single isomer, unassigned) [Example 689] are 2.53 nM and 836 nM.
Consider `COCCOCC[C@@H]1[C@@H](C)C/C=C/[C@H](O)[C@@H]2CC[C@H]2CN2C[C@@]3(CCCc4cc(Cl)ccc43)COc3ccc(cc32)C(=O)NS1(=O)=O` (single isomer, unassigned) [Example 402], for which the IC50 in assay [1] (setting [3]) was 18.6 nM; in assay [2] (16 h) it was 13600 nM.
Take `CO[C@H]1/C=C/C[C@H](CF)[C@@H](C)S(=O)(=O)NC(=O)c2ccc3c(c2)N(C[C@@H]2CC[C@H]21)C[C@@]1(CCCc2cc(Cl)ccc21)CO3` [Example 5, (1S,3′R,6′R,7′S,8′E,11′R,12′R)-6-chloro-11′-(fluoromethyl)-7′-methoxy-12′-methyl-3,4-dihydro-2H,15′H-spiro[naphthalene-1,22′-[20]oxa[13]thia[1,14]diazatetracyclo[14.7.2.0^3,6.0^19,24]pentacosa [8,16,18,24]tetraen]-15′-one 13′,13′-dioxide]: the IC50 in assay [1] (setting [3]) turned out to be 0.54 nM; in assay [2] (setting [6]), 329 nM.
In the same order, the values of `COCCO[C@@H]1/C=C/CCCS(=O)(=O)NC(=O)c2ccc3c(c2)N(C[C@@H]2CC[C@H]21)C[C@@]1(CCCc2cc(Cl)ccc21)CO3` [Example 210, (1S,3′R,6′R,7′R,8′E)-6-chloro-7′-(2-methoxyethoxy)-3,4-dihydro-2H,15′H-spiro[naphthalene-1,22′-[20]oxa[13]thia[1,14]diazatetracyclo[14.7.2.0^3,6.0^19,24]pentacosa [8,16,18,24]tetraen]-15′-one 13′,13′-dioxide] are 1.59 nM and 1530 nM.
For the compound `COC(=O)CN1CC/C=C/[C@H](O)[C@@H]2CC[C@H]2CN2C[C@@]3(CCCc4cc(Cl)ccc43)COc3ccc(cc32)C(=O)NS1(=O)=O` [Example 32, methyl((1S,3′R,6′R,7′S,8′E)-6-chloro-7′-hydroxy-13′,13′-dioxido-15′-oxo-3,4-dihydro-2H,12′H-spiro[naphthalene-1,22′-[20]oxa[13]thia[1,12,14]triazatetracyclo[14.7.2.0^3,6.0^19,24]pentacosa[8,16,18,24]tetraen]-12′-yl)acetate], the IC50 in assay [1] (setting [3]) stood at 0.623 nM; in assay [2] (setting [6]) it was 546 nM.
With `CNC(=O)[C@@H](OC)[C@@H]1/C=C/[C@@H]2CC[C@H]2CN2C[C@@]3(CCCc4cc(Cl)ccc43)COc3ccc(cc32)C(=O)NS(=O)(=O)[C@H](C)[C@@H](C)C1.CNC(=O)[C@H](OC)[C@@H]1/C=C/[C@@H]2CC[C@H]2CN2C[C@@]3(CCCc4cc(Cl)ccc43)COc3ccc(cc32)C(=O)NS(=O)(=O)[C@H](C)[C@@H](C)C1` (mixture of isomers) [Example 362], the IC50 in assay [1] (setting [3]) came to 0.639 nM; in assay [2] (16 h) it was 476 nM.
